Consider 13 compounds from article PMC9421656, “Beyond Retigabine: Design, Synthesis, and Pharmacological Characterization of a Potent and Chemically Stable Neuronal Kv7 Channel Activator with Anticonvulsant Activity” (Journal of Medicinal Chemistry, 2022).

Where “and” joins values, the source holds several entries; their conditions need not be identical. Equal entries are not always repeated.

One data set deals with Kv7.2/Kv7.3 channels (Homo sapiens, UniProt O43525+O43526). The experiment in a line: FluxOR thallium-sensitive fluorescence-based assay in CHO cells stably expressing Kv7.2 + Kv7.3. It counts as cell-based. Also noted: expressed in transfected cells. The conditions noted are these: for Slope of the fluorescent signal at 10 μM: initial slope of FluxOR signal between 5 and 15 s, mean ± SEM; for Slope of the fluorescent signal at 10 μM / Kv7 opening activity (in words): 10 μM; for Kv7 opening activity (in words): compared with retigabine or the reference compound of the subseries. The method, then: While assay robustness in Kv7.2/Kv7.3-expressing cells was high (Z′ factor > 0.5),[27] the Z′ factor calculated in CHO cells expressing Kv7.2 subunits alone was <0.5; thus, all subsequent pharmacological screens were performed in Kv7.2/Kv7.3-expressing cells. […] The Kv7.2/Kv7.3-stable cell line was generated using a plasmid-based PiggyBac transposon system that enables genomic integration of multiple independent transposons containing distinct cDNA sequences. cDNAs for KCNQ2 and KCNQ3 genes (encoding for Kv7.2 and Kv7.3, respectively) were cloned into two different PiggyBac expression vectors (pB-CMV-MCS-EF1α-RedPuro, System Biosciences), and these two plasmids, together with a plasmid encoding for the transposase (System Biosciences), were transfected into CHO cells using Lipofectamine 2000 (Invitrogen) as indicated in the protocol provided by the seller company.
The selected clone stably expressing Kv7.2/Kv7.3 channels was grown in DMEM supplemented with 10% FBS, 50 U/mL Pen-Strep, 2 mM L-glutamine (all purchased from Gibco), and 4 μg/mL puromycin (Sigma) in a humidified atmosphere at 37 °C with 5% CO2. […] A kinetic dispense microplate reader (FLUOstar Optima) was used to read the plate, setting the excitation filter at 485 nm and the emission filter at 520 nm; “Stimulus buffer” prepared as indicated in the protocol was automatically added to wells after 5 s of recording; the plate was read every 1 s, for 50 s. The results were analyzed using Optima Data Analysis and Microsoft Excel.
Only experiments resulting in a Z′ > 0.5 were considered. Data shown (Figures 1D,E,F,G and 3B) were obtained from at least three independent experiments.
Data were analyzed using the GraphPad Prism 8.0.2 (GraphPad Software, LaJolla, CA). Statistically significant differences in the initial slope of the curves were evaluated through ordinary one-way ANOVA, and multiple comparisons were corrected with the Tukey test. […] Indicated EC50 values are the mean of at least three independent experiments ± standard error of the mean (SEM).

Another data set concerns PTZ-induced seizures. The data set can be described thus: Pentylenetetrazol (PTZ)-induced acute seizures in mice. It counts as in vivo, C57Bl/6 mice. The conditions noted are these: XE991 alone, 3 mg/kg i.p. The method, then:
A subcutaneous (s.c.) injection of 100 mg/kg PTZ in mice is able to trigger convulsive behavior whose intensity can be assessed and quantified according to the revised Lüttjohann’s scale (see Materials and Methods),[40] using a 9-point severity score ranging from 0 (whisker trembling) to 8 (wild jumping). For each animal, the maximal severity score (Figure 5A) and the time latency required to reach such values (Figure 5B) were recorded.
Food and water were available ad libitum. Animals were experimentally naive and were used only once.
Thus, each dose was dissolved to allow injection of 0.01 mL/g, i.p. The control group was represented by mice injected only with vehicle solution (saline containing 2% Tween-20 and 2% PEG-400).
PTZ was injected, and animals were placed in clear Plexiglass boxes for observation of seizure activity. The severity of convulsions (from minimal “clonic” to maximal “generalized tonic–clonic”) as well as the latency to onset of maximal seizure was recorded.
0 = whisker trembling, 1 = sudden behavioral arrest, 2 = facial jerking, 3 = neck jerks, 4 = clonic seizures (sitting), 5 = tonic clonic seizures (lying on belly), 6 = clonic seizures (lying on side), 7 = tonic clonic seizures (lying on side), 8 = wild jumping. The behavioral assessments described above were performed in a blind manner and the observers had to reach a unanimous agreement regarding the scoring of the behavior.
The number of animals needed for the experiment was determined using the power analysis software GPower version 3.1.92. The required minimum sample size was 8 mice per group. Statistical analyses were performed using GraphPad Prism (GraphPad Software, LaJolla, CA) using a one-way analysis of variance with the Tukey post-hoc test. The P value of <0.05 was accepted as indicative of a statistically significant difference.

Data set [1] is described as follows: Photostability under UV-visible light with HPLC analysis (degradation, dimer formation). It counts as physicochemical. Conditions: for % Degradation (3h, UV): 10 μM, buffered aqueous solution pH 7.4, 3 h UV-visible light, ± SD; for Dimers Formation / Photodegradation (in words): 3 h UV-visible light; for Dimers Formation: HPLC at 550 nm; for Photodegradation (in words): compared with retigabine. The text has this: Two different HPLC wavelengths were utilized: (a) […] to evaluate the decreased concentration of the starting molecule; (b) 550 nm to investigate the formation of phenazine/phenazinium dimers, as previously described.[10] Unfortunately, dimer formation was detected for all tested compounds, except for 23 and 24. […]. […]. The first group consisted of N4 (−X- in Table 2) substituted analogues, in which the tertiary amine is unavailable for the formation of phenazine dimers (compounds 25–28). […]. The third group included derivatives replacing hydrogen atoms with electron-withdrawing fluorine atoms at position R2 of the benzene-1,2,4-triamine core scaffold (compounds 59, 60), a strategy likely reducing the reactivity of N2 and N4. […].
Photostability experiments were performed by dissolving compounds in DMSO and then diluting in buffered aqueous solutions at pH 7.4 to a final concentration of 10 μM. 1 cm quartz cells, filled with the abovementioned solutions, were irradiated by a UV lamp (UV Consulting TQ 150 equipped with Duran 50 sleeve and 150 W power supply unit, Peschl, Germany) at a fixed distance of 20 cm from the UV source. Control samples were maintained at 37 °C, wrapped with aluminum foil to avoid light exposure, and used to assess chemical stability of the compounds. At predetermined intervals, aliquots were withdrawn and analyzed by UHPLC in order to assess the concentration decrease of the starting materials and the presence of the dimers usually formed by retigabine.
Photostability and chemical stability experiments were carried out on a Kinetex^TM C18 150 × 2.1 mm × 2.6 μm (100 Å) column (Phenomenex, Bologna, Italy). The optimal mobile phase consisted of 0.1% TFA/H2O v/v (A) and 0.1% TFA/ACN v/v (B). Analysis was performed in gradient elution as follows: 0–13.0 min, 5–65% B; 13–14.0 min, 65–95% B; 14–15.0 min, isocratic to 95% B; 15–15.01 min, 95–5% B; then 3 min for column re-equilibration. The flow rate was 0.5 mL min^–1. The column oven temperature was set to 45 °C. The injection volume was 7 μL of sample. The following PDA parameters were applied: sampling rate, 12.5 Hz; detector time constant, 0.160 s; cell temperature, 40 °C. Data acquisition was set in the range 190–800 nm, and chromatograms were monitored at 224 nm to assess the decrease in concentration of the starting material, while a wavelength of 550 nm was used to eventually detect dimerization.

Take `O=C1c2ccccc2C(Cc2ccncc2)(Cc2ccncc2)c2ccccc21` [XE991, reference compound]: the “Effect on retigabine-induced increase of maximal fluorescence and initial slope” value on Kv7.2/Kv7.3 channels (10 μM XE991 with retigabine) was “abolished”. In the data set with PTZ-induced seizures, the “Effect on seizure severity score or latency” value is recorded as “did not affect”.
Consider `CCCCCCC(=O)Nc1ccc(NCc2ccc(C(F)(F)F)cc2)cc1N` [compound 13, N-(2-Amino-4-((4-(trifluoromethyl)benzyl)amino)phenyl)heptanamide], for which the “Slope of the fluorescent signal at 10 μM” value at Kv7.2/Kv7.3 channels worked out at 0.0443±0.0049. In data set [1], the “% Degradation (3h, UV)” value is 30.6 ± 2.2% and the “Dimers Formation” value is “Yes”.
For `CCCCCCCC(=O)Nc1ccc(NCc2ccc(C(F)(F)F)cc2)cc1N` [compound 14, N-(2-Amino-4-((4-(trifluoromethyl)benzyl)amino)phenyl)octanamide], in that order: 0.0563±0.0039, 73.2±0.4% and “Yes”.
For the compound `CC(C)(C)CC(=O)Nc1ccc(NCc2ccc(C(F)(F)F)cc2)cc1N` [compound 17, N-(2-Amino-4-((4-(trifluoromethyl)benzyl)amino)phenyl)-3,3-dimethylbutanamide], the “Slope of the fluorescent signal at 10 μM” value on Kv7.2/Kv7.3 channels was 0.0512±0.0040. For the same compound, in data set [1], the “% Degradation (3h, UV)” value is given as 79.8 ± 4.2% and the “Dimers Formation” value is recorded as “Yes”.
In the same order, the values of `Nc1cc(NCc2ccc(C(F)(F)F)cc2)ccc1NC(=O)CCC1CCCCC1` [compound 19, N-(2-Amino-4-((4-(trifluoromethyl)benzyl)amino)phenyl)-3-cyclohexylpropanamide] are 0.0452±0.0077, 64.8 ± 0.9% and “Yes”.
Regarding `CC(C)(C)CC(=O)Nc1ccc(NCc2ccc(C(F)(F)F)cc2)cc1N1CCCC1` [compound 23, 3,3-Dimethyl-n-(2-(pyrrolidin-1-yl)-4-((4-(trifluoromethyl)benzyl)amino)phenyl)butanamide], on Kv7.2/Kv7.3 channels, the “Kv7 opening activity (in words)” value is listed as “comparable to that of the reference compound 17” and the “Slope of the fluorescent signal at 10 μM” value was found to be 0.0772±0.0036. In data set [1], the “% Degradation (3h, UV)” value is reported as 97.7± 1.0%; the “Dimers Formation” value is “inability of compounds 23 and 24 to form dimers and No”; the “Photodegradation (in words)” value was “enhanced degradation when compared to retigabine”.
Turning to `CC(C)(C)CC(=O)Nc1ccc(NCc2ccc(C(F)(F)F)cc2)cc1N1CCCCC1` [compound 24, 3,3-Dimethyl-N-(2-(piperidin-1-yl)-4-((4-(trifluoromethyl)benzyl)amino)phenyl)butanamide], at Kv7.2/Kv7.3 channels, the “Kv7 opening activity (in words)” value was “comparable to that of the reference compound 17” and the “Slope of the fluorescent signal at 10 μM” value was 0.0591±0.0043. In data set [1], the “% Degradation (3h, UV)” value amounted to 79.8 ± 4.2%; the “Dimers Formation” value is “inability of compounds 23 and 24 to form dimers and No”; the “Photodegradation (in words)” value is given as “enhanced degradation when compared to retigabine”.
Consider `CCCCCCC(=O)Nc1ccc(NCc2ccccc2)cc1N` [compound 41, N-(2-Amino-4-(benzylamino)phenyl)heptanamide], for which, at Kv7.2/Kv7.3 channels, the “Kv7 opening activity (in words)” value is given as “no change in activity” and the “Slope of the fluorescent signal at 10 μM” value is on record as 0.0476±0.0030. In addition, in data set [1], the “% Degradation (3h, UV)” value was 19.5±4.7% and the “Dimers Formation” value is reported as “Yes”.
Take `CC(C)(C)CC(=O)Nc1ccc(NCc2c(F)cccc2F)cc1N` [compound 43, N-(2-Amino-4-((2,6-difluorobenzyl)amino)phenyl)-3,3-dimethylbutanamide]: at Kv7.2/Kv7.3 channels, the “Kv7 opening activity (in words)” value was “still displayed strong activity” and the “Slope of the fluorescent signal at 10 μM” value stood at 0.0534±0.0028. Moreover, in data set [1], the “% Degradation (3h, UV)” value worked out at 98.4±0.2% and the “Dimers Formation” value is “Yes”.
In the same order, the values of `CCCCCCC(=O)Nc1ccc(NCc2ccccc2F)cc1N` [compound 52, N-(2-Amino-4-((2-fluorobenzyl)amino)phenyl)heptanamide] are “no change in activity”, 0.0448±0.0035, 74.9± 0.1% and “Yes”.
For the compound `CC(C)(C)CC(=O)Nc1ccc(CCc2ccc(C(F)(F)F)cc2)cc1N` [compound 68, N-(2-Amino-4-(4-(trifluoromethyl)phenethyl)phenyl)-3,3-dimethylbutanamide], at Kv7.2/Kv7.3 channels, the “Kv7 opening activity (in words)” value is reported as “failed to activate Kv7.2/ Kv7.3 channels” and the “Slope of the fluorescent signal at 10 μM” value amounted to 0.0073±0.0005.
In the case of `CCCCCCNC(=O)c1ccc(NCc2ccc(C(F)(F)F)cc2)cc1N` [compound 71, 2-Amino-N-hexyl-4-((4-(trifluoromethyl)benzyl)amino)benzamide], at Kv7.2/Kv7.3 channels, the “Kv7 opening activity (in words)” value is recorded as “complete loss of activity” and the “Slope of the fluorescent signal at 10 μM” value is on record as 0.0066±0.0006.
For “N-(2-Amino-4-(4-(trifluoromethyl)phenethyl)phenyl)heptanamide [compound 67]”, in that order: “failed to activate Kv7.2/ Kv7.3 channels” and 0.0087±0.0002.
